Assay results taken from ChEMBL document CHEMBL1141946, “Inhibitors of phenylethanolamine N-methyltransferase devoid of alpha2-adrenoceptor affinity” (Bioorg Med Chem Lett, 2005).

Each compound was assayed against T1, Adrenergic receptor alpha-2 (Homo sapiens, UniProt P08913+P18825+P18089) (assay: Displacement of [3H]clonidine from Adrenergic alpha-2 receptor). Settings: not given.
T1 sequence (P08913 whole entry): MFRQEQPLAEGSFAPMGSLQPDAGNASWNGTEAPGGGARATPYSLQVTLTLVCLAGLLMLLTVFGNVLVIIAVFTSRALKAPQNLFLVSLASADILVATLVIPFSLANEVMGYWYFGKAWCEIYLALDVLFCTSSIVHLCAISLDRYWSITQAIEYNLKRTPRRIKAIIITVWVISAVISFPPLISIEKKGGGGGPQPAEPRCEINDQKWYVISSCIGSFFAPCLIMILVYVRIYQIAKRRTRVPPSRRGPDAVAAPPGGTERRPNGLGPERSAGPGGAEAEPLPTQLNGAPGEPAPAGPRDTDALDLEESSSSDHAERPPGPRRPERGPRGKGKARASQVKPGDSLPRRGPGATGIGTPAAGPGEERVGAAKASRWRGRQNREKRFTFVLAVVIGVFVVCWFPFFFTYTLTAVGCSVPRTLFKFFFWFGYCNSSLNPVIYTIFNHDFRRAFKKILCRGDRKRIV
T1 sequence (P18825 whole entry): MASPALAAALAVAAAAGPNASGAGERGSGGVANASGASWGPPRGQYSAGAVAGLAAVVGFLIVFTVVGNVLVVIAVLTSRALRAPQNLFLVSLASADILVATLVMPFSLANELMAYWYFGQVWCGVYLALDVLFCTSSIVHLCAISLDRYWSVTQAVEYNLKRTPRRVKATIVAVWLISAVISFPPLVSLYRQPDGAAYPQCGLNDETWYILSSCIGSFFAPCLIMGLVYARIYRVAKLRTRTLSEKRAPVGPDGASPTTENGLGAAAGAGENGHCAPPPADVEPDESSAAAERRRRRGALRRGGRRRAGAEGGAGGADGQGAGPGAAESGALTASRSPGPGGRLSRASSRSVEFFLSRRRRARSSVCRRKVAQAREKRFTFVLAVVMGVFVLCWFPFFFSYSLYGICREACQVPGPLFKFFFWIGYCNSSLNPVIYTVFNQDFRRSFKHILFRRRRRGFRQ
T1 sequence (P18089 whole entry): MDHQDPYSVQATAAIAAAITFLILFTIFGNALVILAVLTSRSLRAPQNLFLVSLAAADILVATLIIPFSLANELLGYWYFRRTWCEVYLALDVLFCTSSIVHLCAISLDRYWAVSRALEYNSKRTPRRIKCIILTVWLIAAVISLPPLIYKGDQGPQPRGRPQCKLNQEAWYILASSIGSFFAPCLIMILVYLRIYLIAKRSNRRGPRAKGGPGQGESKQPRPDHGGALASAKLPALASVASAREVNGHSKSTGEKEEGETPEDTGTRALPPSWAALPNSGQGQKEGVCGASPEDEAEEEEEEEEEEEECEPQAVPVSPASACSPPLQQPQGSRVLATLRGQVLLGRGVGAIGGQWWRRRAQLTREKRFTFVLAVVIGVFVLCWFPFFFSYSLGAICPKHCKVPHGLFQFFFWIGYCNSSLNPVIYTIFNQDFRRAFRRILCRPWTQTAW
Format: protein assay
With FC(F)(F)c1ccc2c(c1)CNC(C(F)(F)F)C2 (racemic) the Ki was over 1000 µM. Work on NS(=O)(=O)c1ccc2c(c1)CNC(CO)C2 (centres undefined) yielded a Ki of 1400 µM. Compound FC(F)(F)C1Cc2ccc(I)cc2CN1 (racemic) has a Ki of over 1000 µM. CCC1Cc2ccc([N+](=O)[O-])cc2CN1 (racemic) gave a Ki of 28 µM. Work on O=[N+]([O-])c1ccc2c(c1)CNC(C(F)(F)F)C2 (racemic) yielded a Ki of 1400 µM. Clc1ccc2c(c1Cl)CNCC2 was tested, and the Ki was 0.021 µM. In the case of FC(F)(F)C1Cc2ccccc2CN1 (centres undefined), the Ki is reported as 400 µM. In the case of FC(F)(F)C1Cc2ccc(Br)cc2CN1 (racemic), the Ki is reported as over 1000 µM. CCNS(=O)(=O)c1ccc2c(c1)CNC(C(F)(F)F)C2 (racemic) was tested, and the Ki was over 1000 µM. Compound CC(C)C1Cc2ccc(Br)cc2CN1 (centres undefined) has a Ki of 3.9 µM. In the case of Ic1ccc2c(c1)CNCC2, the Ki is reported as 0.22 µM. With CS(=O)(=O)c1ccc2c(c1)CNC(C(F)(F)F)C2 (racemic) the Ki was 3900 µM. With CCC1Cc2ccc(Br)cc2CN1 (racemic) the Ki was 1.2 µM. CC1Cc2ccc(Br)cc2CN1 (racemic) was tested, and the Ki was 1.1 µM. For NS(=O)(=O)c1ccc2c(c1)CNC(C(F)(F)F)C2 (racemic), the Ki was over 1000 µM. For FC(F)(F)C1Cc2ccc(Cl)cc2CN1 (racemic), the Ki was over 1000 µM. Compound N#Cc1ccc2c(c1)CNC(C(F)(F)F)C2 (racemic) has a Ki of 2900 µM. Work on CC(C)C1Cc2ccc([N+](=O)[O-])cc2CN1 (racemic) yielded a Ki of 36 µM.

Same assay, conditions: read-out: Ki
NS(=O)(=O)c1ccc2c(c1)CNCC2 gave a Ki of 100 µM.
